Reference: paper PMC8911752, “The Synthesis and Initial Evaluation of MerTK Targeted PET Agents” (Molecules, 2022)

Assays:
MerTK = target: T1, MerTK (Homo sapiens, UniProt Q12866); set-up: method as in PMID 34038857; details: read-out: Ki against MerTK; cited from earlier work
T1 sequence (Q12866 21-999): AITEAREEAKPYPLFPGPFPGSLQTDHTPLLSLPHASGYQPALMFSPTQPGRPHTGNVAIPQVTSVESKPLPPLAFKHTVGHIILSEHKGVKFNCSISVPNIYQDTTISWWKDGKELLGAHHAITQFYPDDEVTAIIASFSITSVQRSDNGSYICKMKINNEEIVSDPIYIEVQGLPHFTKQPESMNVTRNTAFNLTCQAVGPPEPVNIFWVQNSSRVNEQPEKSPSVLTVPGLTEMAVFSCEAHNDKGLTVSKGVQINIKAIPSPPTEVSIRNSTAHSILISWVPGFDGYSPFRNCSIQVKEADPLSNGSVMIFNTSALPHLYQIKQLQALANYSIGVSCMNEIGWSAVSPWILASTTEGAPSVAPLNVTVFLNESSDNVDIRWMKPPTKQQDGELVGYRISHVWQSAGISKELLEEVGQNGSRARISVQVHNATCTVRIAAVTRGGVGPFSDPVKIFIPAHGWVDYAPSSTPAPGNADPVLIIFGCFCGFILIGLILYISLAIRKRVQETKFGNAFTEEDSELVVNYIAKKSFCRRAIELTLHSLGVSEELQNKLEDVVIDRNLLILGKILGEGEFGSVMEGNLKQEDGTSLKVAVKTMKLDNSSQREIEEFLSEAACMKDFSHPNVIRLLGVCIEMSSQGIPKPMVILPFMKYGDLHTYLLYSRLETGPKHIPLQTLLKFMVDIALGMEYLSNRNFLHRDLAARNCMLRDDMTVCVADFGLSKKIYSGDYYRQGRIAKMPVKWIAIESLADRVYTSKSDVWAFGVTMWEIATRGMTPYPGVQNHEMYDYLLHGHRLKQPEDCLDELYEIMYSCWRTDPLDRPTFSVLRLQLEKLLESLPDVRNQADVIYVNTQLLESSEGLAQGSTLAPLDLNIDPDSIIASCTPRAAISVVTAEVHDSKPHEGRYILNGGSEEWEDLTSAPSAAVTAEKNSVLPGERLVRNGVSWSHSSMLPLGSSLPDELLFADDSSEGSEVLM

kinome = tested on: kinome; set-up: method as in PMID 34038857; details: at 100 nM, against the kinome; cited from earlier work
[1] = 1-octanol/water partition coefficient (LogP) by gamma counting; format: physicochemical; details: pH 7.4, sample pH around 7.4, n = 3, mean ± SD
Method: In order to evaluate the hydrophilicity and lipophilicity of this fluorine-18 labeled agent [^18F]-MerTK-6, we measured the 1-octanol/water partition coefficient (LogP) of [^18F]-MerTK-6. The resulting fractions were counted using a gamma counter. The reaction was repeated three times.
The LogP value of the [^18F]-MerTK-6 was calculated by the gamma particle counts of samples in the aqueous phase or 1-octanol phase by Automatic Gamma Counter 2480-0010 (PerkinElmer Instruments Inc., Waltham, MA, USA).
The [^18F]-MerTK-6 was collected after HPLC purification. After reformulation (pH value around 7.4), 20 µL [^18F]-MerTK-6 sample in saline was added to the mixture of 1 mL Mili-Q® water and 1 mL 1-octanol in a 5 mL Eppendorf tube. The tube was shacked thoroughly and then let stand still for 5 min. Then the 100 µL 1-octanol phase and 100 µL aqueous phase were subjected to a gamma counter separately and the gamma counts were recorded (n = 3). The LogP value was then calculated and expressed as a mean value± standard derivation.

[2] = tested on: B16F10 tumor-bearing mice; assay: PET imaging in B16F10 tumor-bearing mice; format: in vivo; details: for uptake in kidney / uptake in liver / uptake in muscle / uptake in tumor: i.v., PET ROI, n = 3
Method: Evaluation of the PET agent [^18F]-MerTK-6 was performed on B16F10 tumor-bearing mice. At 30 min post-injection (p.i), the uptake in tumor, liver, kidney, and muscle was 4.65 ± 1.25, 14.79 ± 0.99, 10.42 ± 1.01, and 2.51 ± 0.48%ID/g, respectively. The uptake at 2 h p.i. was 4.79 ± 0.24, 9.72 ± 1.56, 5.34 ± 1.25, and 1.55 ± 0.23%ID/g, respectively. Overall, the tumor uptake was maintained at ~5%ID/g and the tumor to muscle contrast increased to 3.09 at 2 h p.i, compared with 1.86 at 0.5 h p.i.
All animal studies were reviewed and approved by The University of North Carolina at Chapel Hill Institutional Animal Care and Use Committee. The B16F10 tumor cell was obtained from the LCCC tissue culture facility (the University of North Carolina at Chapel Hill, Chapel Hill, NC, USA). The B16F10 tumor-bearing […] mouse model was prepared as described previously. Briefly, B16/F10 cells were subcutaneously injected on the right flank of C57BL/6 female mice (Jackson Laboratory). The tumor volume was measured daily. When the tumor size reached 100 mm^3, the mice were used for PET imaging studies.
B16F10 tumor-bearing mice (n = 3/group) were intravenously injected via the tail vein with tracers. At 30 min and 120 min post-injection, a 10-min static emission scan was acquired with a SuperArgus small-animal PET/CT scanner. The regions of interests (ROIs) were drawn over the tumor and other organs and calculated as %ID/g. The mean uptake and standard deviation were calculated.

logP [1] | tumor to muscle ratio ([2]; 0.5 h post-injection) | uptake in kidney ([2]; 30 min post-injection) [%ID/g] | uptake in liver ([2]; 30 min post-injection) [%ID/g] | uptake in muscle ([2]; 30 min post-injection) [%ID/g] | uptake in tumor ([2]; 30 min post-injection) [%ID/g] | tumor to muscle ratio ([2]; 2 h post-injection) | uptake in kidney ([2]; 2 h post-injection) [%ID/g] | uptake in liver ([2]; 2 h post-injection) [%ID/g] | uptake in muscle ([2]; 2 h post-injection) [%ID/g] | uptake in tumor ([2]; 2 h post-injection) [%ID/g] | tumor uptake (overall, maintained) ([2]; overall, 0.5 h to 2 h post-injection) | Compound | Ki (MerTK) [pM] | Ambit selectivity score S50 (kinome)
– | – | – | – | – | – | – | – | – | – | – | – | CCC[C@H](C)Nc1ncc2c(C3CCN(C(=O)c4cc(C)nc(C)c4)CC3)cn(C3CCC(O)CC3)c2n1 (some centres unmarked) [UNC5293] | 190 | 0.041
1.56 ± 0.02 | 1.86 | 10.42 ± 1.01 | 14.79 ± 0.99 | 2.51 ± 0.48 | 4.65 ± 1.25 | 3.09 | 5.34 ± 1.25 | 9.72 ± 1.56 | 1.55 ± 0.23 | 4.79 ± 0.24 | ~ 5 %ID/g | C[C@H](Nc1ncc2c(C3CCN(CC[18F])CC3)cn([C@H]3CC[C@H](O)CC3)c2n1)c1ccccc1 [[^18F]-MerTK-6] | – | –
